Read-outs that look alike come from different tables or passages of the source.
How the values were obtained:
CYP3A4 = CYP3A4 (Homo sapiens (Human), UniProt P08684); test: Cytochrome P450 inhibition assay, recombinant CYP3A4 (BFC substrate); assay type: in vitro ADME; conditions: recombinant enzyme
Description: Recombinant enzymes, 3A4 and 2D6, generated using the ABL yeast expression system were used. […] The assay mixture also included K2HPO4 (pH 7.4; conc. 0.1 M) and NADPH (conc. 1 mM). The incubation time was 30 minutes, and the reference inhibitor was A-naphthoflavone. For CYP2D6, the enzyme amount was 2 pmol per well, and the substrate (7-methoxy-4-(aminomethyl)-coumarin; MAMC) was used at 20 μM. The assay mixture also included K2HPO4 (pH 7.4; conc. 0.1 M) and NADPH (conc. 0.06 mM). The incubation time was 35 minutes, and the reference inhibitor was quinidine.
Briefly, 0.6 μL of serially diluted compound was added to 75 μL water. 10 μL of diluted compound in water was then added to each assay plate. 20 μL of a K2HPO4, enzyme, and substrate mixture was added. After 10 minutes of room temperature pre-incubation, 10 μL of NADPH was added, and the plates were placed at 37° C. for 30 or 35 minutes depending on the enzyme being tested. After the incubation was complete, 20 μL of 0.1% Tris/ACN was added to the plate. The plate was read on a FluorStar fluorescence plate reader.

[1] = biological target: human norepinephrine transporter (Homo sapiens (Human), UniProt P23975); test: Human NET (norepinephrine transporter) uptake assay; assay type: cell-based; conditions: read-out: hNET Ki
Sequence of human norepinephrine transporter (P23975 whole entry): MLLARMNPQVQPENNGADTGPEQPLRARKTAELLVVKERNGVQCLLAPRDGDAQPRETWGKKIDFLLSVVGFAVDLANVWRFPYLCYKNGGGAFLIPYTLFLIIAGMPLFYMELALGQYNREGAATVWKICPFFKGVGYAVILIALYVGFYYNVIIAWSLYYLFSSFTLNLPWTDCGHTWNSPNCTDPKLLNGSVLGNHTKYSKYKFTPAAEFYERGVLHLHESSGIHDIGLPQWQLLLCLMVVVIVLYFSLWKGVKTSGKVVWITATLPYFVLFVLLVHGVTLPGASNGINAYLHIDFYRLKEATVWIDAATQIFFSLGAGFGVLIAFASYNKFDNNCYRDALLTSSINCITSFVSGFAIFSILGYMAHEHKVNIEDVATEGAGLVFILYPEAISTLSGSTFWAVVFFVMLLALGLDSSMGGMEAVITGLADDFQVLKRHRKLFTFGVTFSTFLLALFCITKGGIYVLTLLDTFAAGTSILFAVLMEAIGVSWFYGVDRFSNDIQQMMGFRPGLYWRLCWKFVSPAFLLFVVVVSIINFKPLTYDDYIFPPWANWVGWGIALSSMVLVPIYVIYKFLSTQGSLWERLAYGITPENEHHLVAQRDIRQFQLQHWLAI
Outline: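 HEK293F cells transfected with human NET were thawed, plated at about 60,000 cells/well and held at 37 °C for at least 3 h. Compounds came from 10 mM DMSO stocks, with nomifensine as control, in 1×HBSS/0.02 M HEPES. Uptake was followed with a neurotransmitter transporter dye, dosed as % of vendor reconstitution, in triplicate.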

[2] = biological target: human serotonin transporter (Homo sapiens (Human), UniProt P31645); test: Human SERT (serotonin transporter) uptake assay; assay type: cell-based; conditions: read-out: hSERT Ki
Sequence of human serotonin transporter (P31645 whole entry): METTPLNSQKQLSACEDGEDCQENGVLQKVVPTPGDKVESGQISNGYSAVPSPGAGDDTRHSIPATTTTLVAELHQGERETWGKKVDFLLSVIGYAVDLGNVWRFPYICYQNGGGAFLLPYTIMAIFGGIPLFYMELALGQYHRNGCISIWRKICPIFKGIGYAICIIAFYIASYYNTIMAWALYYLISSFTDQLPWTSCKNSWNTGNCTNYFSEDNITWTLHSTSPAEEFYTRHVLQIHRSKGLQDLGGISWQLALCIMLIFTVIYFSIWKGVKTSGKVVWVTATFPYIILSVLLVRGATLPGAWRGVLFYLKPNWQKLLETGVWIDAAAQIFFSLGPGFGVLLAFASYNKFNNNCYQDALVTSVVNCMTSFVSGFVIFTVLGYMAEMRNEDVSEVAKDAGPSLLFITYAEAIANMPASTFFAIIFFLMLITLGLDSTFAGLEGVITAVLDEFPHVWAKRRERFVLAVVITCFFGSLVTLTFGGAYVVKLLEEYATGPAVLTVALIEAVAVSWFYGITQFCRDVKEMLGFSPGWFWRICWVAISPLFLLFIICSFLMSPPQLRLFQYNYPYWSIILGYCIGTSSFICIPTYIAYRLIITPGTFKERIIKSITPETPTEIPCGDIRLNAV
Description: This protocol was designed to measure inhibition of uptake by the human serotonin transporter. […] The Assay Buffer (AB) was […] and 0.02 M HEPES.
(§1) The HEK293F cells were transfected with the human serotonin transporter and frozen in 1 mL aliquots at about 1E+07 cells/mL. On the day of the experiment, the cells were removed from −80° C. or liquid nitrogen and thawed in a room temperature water bath. The cells were dilute to about 1-2E+06 with Freestyle medium. A 1 mL sample (1:2 dilution) was prepared, and the cells were counted. The cells were spun at 1100 rpm for 5 minutes, and the medium was aspirated off. The cells were resuspend in medium at 1.5E+06 cells/mL for about 60,000 cells per well. 40 μL of cells were dispensed per well in the Biocoat plates. The plates were spun at 1100 rpm for 1 minute to improve homogeneity of the cell layer and were incubated at 37° C. for a minimum of 3 hours.
12 μL of test compound (10 mM) in DMSO was added to the wells, and nomifensine was used as a control. Fluoxetine (final assay concentration of 10 μM) was used for background signal. The neurotransmitter transporter dye was prepared in AB prior to use.
Due to the proprietary nature of the dye formulation, all dye concentrations were expressed as a percentage of the vendor-recommended dye reconstitution. Thus, the above calculations were valid when both [dye] and Km were expressed in the same units (%). Compounds were tested in triplicate (n=3).

CYP2D6 = CYP2D6 (Homo sapiens (Human), UniProt P10635); test: Cytochrome P450 inhibition assay, recombinant CYP2D6 (MAMC substrate); assay type: in vitro ADME; conditions: recombinant enzyme
Sequence of CYP2D6 (P10635 whole entry): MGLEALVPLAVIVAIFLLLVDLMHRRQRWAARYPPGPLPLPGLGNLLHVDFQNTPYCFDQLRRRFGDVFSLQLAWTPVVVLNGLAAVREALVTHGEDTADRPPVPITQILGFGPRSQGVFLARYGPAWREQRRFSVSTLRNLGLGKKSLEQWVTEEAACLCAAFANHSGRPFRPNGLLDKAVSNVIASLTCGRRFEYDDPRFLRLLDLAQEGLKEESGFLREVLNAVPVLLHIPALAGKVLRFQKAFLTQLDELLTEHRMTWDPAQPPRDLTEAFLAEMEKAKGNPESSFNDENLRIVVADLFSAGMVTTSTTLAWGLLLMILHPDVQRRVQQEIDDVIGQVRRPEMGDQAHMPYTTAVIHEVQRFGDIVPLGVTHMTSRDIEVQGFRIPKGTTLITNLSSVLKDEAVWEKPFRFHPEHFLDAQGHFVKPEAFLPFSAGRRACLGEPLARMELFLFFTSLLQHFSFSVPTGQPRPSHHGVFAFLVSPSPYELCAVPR

[3] = pKa of basic centres (Table 1); assay type: physicochemical
[4] = biological target: human dopamine transporter (Homo sapiens (Human), UniProt Q01959); test: Human DAT (dopamine transporter) uptake assay; assay type: cell-based; conditions: read-out: hDAT Ki
Sequence of human dopamine transporter (Q01959 whole entry): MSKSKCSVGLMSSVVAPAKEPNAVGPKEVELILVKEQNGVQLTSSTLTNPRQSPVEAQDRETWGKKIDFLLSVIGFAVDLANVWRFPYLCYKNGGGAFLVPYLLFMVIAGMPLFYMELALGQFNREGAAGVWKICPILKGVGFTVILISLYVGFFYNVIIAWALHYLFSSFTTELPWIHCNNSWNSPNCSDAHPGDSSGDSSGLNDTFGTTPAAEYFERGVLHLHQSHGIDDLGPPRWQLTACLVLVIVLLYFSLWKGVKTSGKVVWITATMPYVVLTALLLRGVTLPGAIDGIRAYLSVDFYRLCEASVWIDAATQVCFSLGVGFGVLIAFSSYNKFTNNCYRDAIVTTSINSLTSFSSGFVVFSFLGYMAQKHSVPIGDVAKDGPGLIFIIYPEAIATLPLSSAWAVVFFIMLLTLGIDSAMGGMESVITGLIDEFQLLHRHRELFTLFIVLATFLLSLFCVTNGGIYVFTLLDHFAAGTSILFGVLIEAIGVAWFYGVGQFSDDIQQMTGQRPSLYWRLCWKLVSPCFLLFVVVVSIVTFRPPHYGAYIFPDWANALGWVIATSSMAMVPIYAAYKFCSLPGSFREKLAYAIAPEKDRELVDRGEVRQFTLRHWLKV
Description: This protocol was designed to measure inhibition of uptake by the human dopamine transporter. […] The Assay Buffer (AB) was 1×HBSS and 0.02 M HEPES.
as §1, with “dopamine” for “serotonin”
12 μL of test compound (10 mM) in DMSO was added to the wells, and nomifensine was used as a control. […] The neurotransmitter transporter dye was prepared in AB prior to use.
Due to the proprietary nature of the dye formulation, all dye concentrations were expressed as a percentage of the vendor-recommended dye reconstitution. Thus, the above calculations were valid when both [dye] and K1 were expressed in the same units (%). Compounds were tested in triplicate (n=3).

[5] = first base, e.g., an aliphatic primary, secondary, or tertiary amine, read-out: pKa (Base 1)
[6] = second base in the same molecule (if present), read-out: pKa (Base 2)

Sequence of CYP3A4 (P08684 whole entry): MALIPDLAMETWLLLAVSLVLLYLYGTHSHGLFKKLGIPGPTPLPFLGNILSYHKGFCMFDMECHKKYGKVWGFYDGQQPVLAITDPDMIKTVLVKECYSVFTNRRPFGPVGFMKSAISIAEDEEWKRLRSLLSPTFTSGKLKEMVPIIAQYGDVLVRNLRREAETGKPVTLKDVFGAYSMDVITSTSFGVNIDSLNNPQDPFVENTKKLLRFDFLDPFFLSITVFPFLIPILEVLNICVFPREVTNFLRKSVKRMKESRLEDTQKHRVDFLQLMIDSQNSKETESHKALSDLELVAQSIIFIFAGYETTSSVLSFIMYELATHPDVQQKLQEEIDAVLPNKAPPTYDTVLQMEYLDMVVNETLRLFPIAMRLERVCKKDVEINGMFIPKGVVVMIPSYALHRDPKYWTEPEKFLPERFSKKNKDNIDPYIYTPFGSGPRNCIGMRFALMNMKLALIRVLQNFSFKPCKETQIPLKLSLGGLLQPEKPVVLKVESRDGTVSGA

With CNC[C@H](c1ccc(Cl)c(Cl)c1)[C@H](O)c1cncc(OC)c1 [Compound 166] the IC50 (CYP3A4) was 240 nM, the Ki [1] was 92.4 nM and the Ki [2] was 36.9 nM. For the same compound, the IC50 (CYP2D6) was 630 nM, the pKa [3, 5] was 9.3 and the pKa [3, 6] was 4.5. The Ki [4] was 132 nM.
CNC[C@H](c1ccc(Cl)c(Cl)c1)[C@H](O)c1cccc(S(C)(=O)=O)c1 [Compound 101] gave an IC50 (CYP3A4) of 20000 nM, a Ki [1] of 54.4 nM and a Ki [2] of 2740 nM. It also gave an IC50 (CYP2D6) of 3500 nM, a pKa [3, 5] of 9.3 and a Ki [4] of 73 nM.
CCc1cccc([C@@H](O)[C@H](CNC)c2ccc(Cl)c(Cl)c2)c1 [Compound 159] gave an IC50 (CYP3A4) of 2500 nM, a Ki [1] of 55.4 nM and a Ki [2] of 69.5 nM. The IC50 (CYP2D6) was 170 nM, the pKa [3, 5] was 9.4 and the Ki [4] was 55.8 nM.
CNC[C@H](c1ccc(Cl)c(Cl)c1)[C@@H](O)c1cccc(SC)c1 [Compound 163] showed an IC50 (CYP3A4) of 14000 nM, a Ki [1] of 80 nM and a Ki [2] of 192 nM. The IC50 (CYP2D6) was 730 nM, the pKa [3, 5] was 9.4 and the Ki [4] was 110 nM.
In the case of CNC[C@@H](c1ccc(Cl)c(Cl)c1)[C@@H](O)c1cccc(N2CCOCC2)c1 [Compound 125], the IC50 (CYP3A4) is reported as 4800 nM, the Ki [1] is reported as 371 nM and the Ki [2] is reported as 725 nM. For the same compound, the IC50 (CYP2D6) was 2400 nM, the pKa [3, 5] was 9.4 and the pKa [3, 6] was 5.1. It also gave a Ki [4] of 65.3 nM.
For CNC[C@@H](c1ccc(Cl)c(Cl)c1)[C@@H](O)c1ccccc1[S+](C)[O-] (stereo partly shown) [Compound 128], the IC50 (CYP3A4) was 20000 nM, the Ki [1] was 2630 nM and the Ki [2] was 3040 nM. It also gave an IC50 (CYP2D6) of 19000 nM, a pKa [3, 5] of 9.4 and a Ki [4] of 193 nM.
Compound CNC[C@H](c1ccc(OC)c(C)c1)[C@H](O)c1cccnc1 [Compound 55] has an IC50 (CYP3A4) of 20000 nM, a Ki [1] of 4.6 nM and a Ki [2] of 1.8 nM. For the same compound, the IC50 (CYP2D6) was 810 nM, the pKa [3, 5] was 10 and the Ki [4] was 1630 nM.
CNC[C@H](c1ccc2ccccc2c1)[C@H](OCCO)c1ccccc1 [Compound 32] gave an IC50 (CYP3A4) of 20000 nM, a Ki [1] of 2.7 nM and a Ki [2] of 0.7 nM. For the same compound, the IC50 (CYP2D6) was 560 nM, the pKa [3, 5] was 9.6 and the Ki [4] was 15.8 nM.
With NC[C@@H](Cc1ccccc1O)c1ccc2ccccc2c1 [Compound 133] the IC50 (CYP3A4) was 10000 nM, the Ki [1] was 34.6 nM and the Ki [2] was 116 nM. The IC50 (CYP2D6) was 580 nM, the pKa [3, 5] was 9.4 and the Ki [4] was 52.7 nM.
With NCC[C@@H](Cc1cccnc1)c1ccc(Cl)c(Cl)c1 [Compound 112] the IC50 (CYP3A4) was 18000 nM, the Ki [1] was 148 nM and the Ki [2] was 154 nM. For the same compound, the IC50 (CYP2D6) was 2900 nM, the pKa [3, 5] was 8.6 and the pKa [3, 6] was 5.1. The Ki [4] was 273 nM.
CNC[C@@H](c1ccc2ccccc2c1)[C@@H](O)c1cncc(OC)c1 [Compound 122] showed an IC50 (CYP3A4) of 20000 nM, a Ki [1] of 273 nM and a Ki [2] of 124 nM. It also gave an IC50 (CYP2D6) of 3400 nM, a pKa [3, 5] of 9.6 and a pKa [3, 6] of 4.5. It also gave a Ki [4] of 49.6 nM.
Work on CNC[C@@H](c1ccc(Cl)c(Cl)c1)[C@@H](O)c1cccc([S+](C)[O-])c1 (single isomer, unassigned) [Compound 116] yielded an IC50 (CYP3A4) of 20000 nM, a Ki [1] of 195 nM and a Ki [2] of 1690 nM. The IC50 (CYP2D6) was 15000 nM, the pKa [3, 5] was 9.4 and the Ki [4] was 39.7 nM.
With CN(C)C[C@H](c1ccc(Cl)c(Cl)c1)[C@H](O)c1ccccc1 (racemic) [Compound 105] the IC50 (CYP3A4) was no less than 20000 nM, the Ki [1] was 64.6 nM and the Ki [2] was 138 nM. The IC50 (CYP2D6) was 2100 nM, the pKa [3, 5] was 8.8 and the Ki [4] was 18.1 nM.
CNC[C@@H](c1ccc2ccccc2c1)[C@H](O)c1cc(F)cc(F)c1 [Compound 142] showed an IC50 (CYP3A4) of 20000 nM, a Ki [1] of 13.8 nM and a Ki [2] of 208 nM. The IC50 (CYP2D6) was 660 nM, the pKa [3, 5] was 9.6 and the Ki [4] was 95.3 nM.

From patent US9944618B2, “Inhibiting neurotransmitter reuptake” (Mayo Foundation for Medical Education and Research, priority 2013, dated 2018)
